Laboratory results as given in publication PMC11642016 (International Journal of Molecular Sciences, 2024).
Several values for one entry are separate records, joined by “and”; a condition that tells them apart may be missing. Identical values can stand only once. Like-named read-outs stand apart in the source and are kept apart here.

Assays:
PANC-1 cells [1] = test: Colony formation (clonogenic) assay; assay type: cell-based, human; details: 4 µM
HEK293T CLPP^−/− cells = test: CellTiter-Glo cell viability assay, HEK293T CLPP−/− (ClpP dependence); details: for HEK293T CLPP-/- Cell viability (% of controll): individual replicates;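 for all read-outs here: CellTiter-Glo luminescent signal read on a microplate reader once HEK293T CLPP−/− cells had been exposed to compounds for 72 h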
Procedure: (§1) Primary fibroblast cultures were prepared from human skin biopsies and maintained in DMEM supplemented with 10% FBS, 1% penicillin-streptomycin, and 1% MEM Non-Essential Amino Acids Solution (Thermo Fisher Scientific). […] All cell lines were cultured in a humidified atmosphere at 37 °C and 5% CO2, passaged twice a week, and the experiments were performed on cells between passage 5 and 15. The cell lines were routinely screened for the absence of mycoplasma infection (DAPI staining).
(§2) The effects of the synthesized compounds on cell viability were measured using the CellTiter-Glo® luminescent cell viability assay (Promega, Madison, WI, USA), according to the manufacturer’s instructions. Briefly, cells were seeded onto a flat-bottomed, white 96-well plate (BRANDplates, cat. no.: 781965)), with the following densities: PANC-1: 750 cells/well, Fadu: 2000 cells/well, primary fibroblasts: 2000 cells/well, HEK293T WT: 1000 cells/well, HEK293T CLPP^−/−: 2500 cells/well. After seeding, cells were incubated for a further 48 h before treatment. Cells were treated with the compounds for 72 h. Three concentrations (25.0 µM; 8.3 µM; 2.8 µM) were applied during the initial cell viability screening, while for the determination of dose–response curves, 1.5-fold serially diluted compound concentrations were applied (range: 26 µM–0.7 µM). After treatment, the luminescence signal was recorded using a microplate reader (BioTek Synergy 2 Multi-Mode Reader, BioTek, Winooski, VT, USA).
(§3) Data analysis was performed using GraphPad Prism 9.5.0 software (GraphPad Software, San Diego, CA, USA). […] The dose–response curves were generated by four-parameter nonlinear regression, and the IC50 values were determined as the means ± SEM of the best-fit values of 3 independent measurements. The R^2 values were consistently above 0.93, indicating a strong fit of the model to the experimental data (Supplementary S.89). […] Dunnett’s post hoc test was applied to adjust for multiple comparisons, minimizing the likelihood of false positive results. Assumptions for ANOVA, including normality (assessed via QQ plots) and homogeneity of variance (tested using the Brown–Forsythe test), were verified. The following significance levels were applied: * p < 0.05, ** p < 0.01, *** p < 0.001, **** p < 0.0001. […] The tumor selectivity of the compounds was quantitatively characterized by the selectivity index (SI). This parameter was calculated as the ratio of the average best-fit IC50 value for primary fibroblasts and the best-fit IC50 value for the corresponding tumor cells (PANC-1 or Fadu).

HEK293T WT cells = test: CellTiter-Glo cell viability assay, HEK293T WT; details: for HEK293T WT Cell viability (% of controll): 72 h, dose–response, individual replicates
Procedure: as §1, §2, §3

Fadu cells = test: CellTiter-Glo luminescent cell viability assay, Fadu; details: for Fadu Cell viability (% of controll): dose–response, individual replicates
PANC-1 cells [2] = test: CellTiter-Glo luminescent cell viability assay, PANC-1; details: for PANC-1 Cell viability (% of controll): dose–response, individual replicates
PANC-1 and Fadu cells = test: CellTiter-Glo viability, statements covering both cancer cell lines; assay type: cell-based, human; details: 72 h dose–response
[3] = test system: non-tumorous primary fibroblast cells; test: CellTiter-Glo luminescent cell viability assay, primary fibroblasts; details: for Primer fibroblast Cell viability (% of controll): 72 h, dose–response, individual replicates
Procedure: as §1, §2, §3

For `CNCC#Cc1cccc(CN2C(=O)C3=C(CCN(Cc4ccc(-n5cc(-[c-]6cccc6)nn5)cc4)C3)N3CCN=C23)c1.[Fe+2].c1cc[cH-]c1` [38a], the “viable cells / colonies after shorter exposure” value (PANC-1 cells [1]; 24 h treatment followed by 5 days post-incubation) was “left only traces of viable cells”, the “viable cells / colonies after longer exposure” value (PANC-1 cells [1]; 72 h treatment followed by 3 days post-incubation) was “no viable cells were discernible” and the “HEK293T CLPP-/- Cell viability (% of controll)” value (HEK293T CLPP^−/− cells; 0.4 μM, 72 h, dose–response, listed as CZT456, 0.4 µM) was 109 % of controll and 108 % of controll and 110 % of controll and 114 % of controll. The “HEK293T CLPP-/- Cell viability (% of controll)” value (HEK293T CLPP^−/− cells; 0.6 μM, 72 h, dose–response, listed as CZT456, 0.6 µM) was 111 % of controll and 109 % of controll and 110 % of controll, the “HEK293T CLPP-/- Cell viability (% of controll)” value (HEK293T CLPP^−/− cells; 1.0 μM, 72 h, dose–response, listed as CZT456, 1 µM) was 105 % of controll and 107 % of controll and 106 % of controll and the “HEK293T CLPP-/- Cell viability (% of controll)” value (HEK293T CLPP^−/− cells; 1.6 μM, 72 h, dose–response, listed as CZT456, 1.6 µM) was 92 % of controll and 96 % of controll and 103 % of controll and 93 % of controll. The “HEK293T CLPP-/- Cell viability (% of controll)” value (HEK293T CLPP^−/− cells; 2.5 μM, 72 h, dose–response, listed as CZT456, 2.5 µM) was 41 % of controll and 59 % of controll and 55 % of controll and 48 % of controll, the “HEK293T CLPP-/- Cell viability (% of controll)” value (HEK293T CLPP^−/− cells; 4.0 μM, 72 h, dose–response, listed as CZT456, 4 µM) was 1 % of controll and 8 % of controll and 9 % of controll and the “HEK293T CLPP-/- Cell viability (% of controll)” value (HEK293T CLPP^−/− cells; 6.4 μM, 72 h, dose–response) was 0 % of controll. The “HEK293T CLPP-/- Cell viability (% of controll)” value (HEK293T CLPP^−/− cells; 16.25 μM, 72 h, dose–response) was 0 % of controll, the “HEK293T CLPP-/- Cell viability (% of controll)” value (HEK293T CLPP^−/− cells; 26 μM, 72 h, dose–response) was 0 % of controll and the “effect on the viability of HEK293T CLPP^−/− cells” value (HEK293T CLPP^−/− cells; dose–response, 72 h, compared with HEK293T WT) was “maintained”. For the same compound, the IC50 (HEK293T CLPP^−/− cells; read-out: IC50 (µM) HEK293T CLPP^−/−, 72 h treatment, ± SEM, best-fit values, n = 4) was 2.4 ± 0.03 µM, the “HEK293T WT Cell viability (% of controll)” value (HEK293T WT cells; 0.4 μM) was 106 % of controll and 101 % of controll and 99 % of controll and 100 % of controll and the “HEK293T WT Cell viability (% of controll)” value (HEK293T WT cells; 0.6 μM) was 106 % of controll (2×) and 109 % of controll and 81 % of controll. The “HEK293T WT Cell viability (% of controll)” value (HEK293T WT cells; 1.0 μM) was 82 % of controll and 90 % of controll and 94 % of controll and 81 % of controll, the “HEK293T WT Cell viability (% of controll)” value (HEK293T WT cells; 1.6 μM) was 65 % of controll and 60 % of controll and 52 % of controll (2×) and the “HEK293T WT Cell viability (% of controll)” value (HEK293T WT cells; 2.5 μM) was 11 % of controll and 6 % of controll and 5 % of controll (2×). The “HEK293T WT Cell viability (% of controll)” value (HEK293T WT cells; 4.0 μM) was 0 % of controll, the “HEK293T WT Cell viability (% of controll)” value (HEK293T WT cells; 6.4 μM) was 0 % of controll and the “HEK293T WT Cell viability (% of controll)” value (HEK293T WT cells; 16.25 μM) was 0 % of controll. The “HEK293T WT Cell viability (% of controll)” value (HEK293T WT cells; 26 μM) was 0 % of controll, the IC50 (HEK293T WT cells; read-out: HEK293T WT IC50 values, individual replicates n1-n4, IC50 independently determined for each replicate measurement (Supplement S.6)) was 1.6 µM and 1.5 µM and 1.65 µM and 1.62 µM and the IC50 (HEK293T WT cells; read-out: IC50 (µM) HEK293T WT, 72 h treatment, ± SEM, best-fit values, n = 4) was 1.6 ± 0.04 µM. For the same compound, the “Fadu Cell viability (% of controll)” value (Fadu cells; 0.7 μM, 72 h) was 109 % of controll and 115 % of controll and 106 % of controll, the “Fadu Cell viability (% of controll)” value (Fadu cells; 1 μM, 72 h) was 110 % of controll and 106 % of controll and 105 % of controll and the “Fadu Cell viability (% of controll)” value (Fadu cells; 1.5 μM, 72 h) was 102 % of controll and 103 % of controll and 100 % of controll. The “Fadu Cell viability (% of controll)” value (Fadu cells; 2.3 μM, 72 h) was 96 % of controll and 91 % of controll and 87 % of controll, the “Fadu Cell viability (% of controll)” value (Fadu cells; 3.4 μM, 72 h) was 43 % of controll and 13 % of controll (2×) and the “Fadu Cell viability (% of controll)” value (Fadu cells; 5.1 μM, 72 h) was 0 % of controll. For the same compound, the “Fadu Cell viability (% of controll)” value (Fadu cells; 7.7 μM, 72 h) was 0 % of controll, the “Fadu Cell viability (% of controll)” value (Fadu cells; 17.3 μM, 72 h) was 0 % of controll and the “Fadu Cell viability (% of controll)” value (Fadu cells; 26 μM, 72 h) was 0 % of controll. The “Cell Viability (% of Control) 2.8 µM” value (Fadu cells; Fadu, 2.8 µM, 72 h, second-set screening, mean ± SD, n = 2) was 85 ± 16 % of Control, the “Cell Viability (% of Control) 8.3 µM” value (Fadu cells; Fadu, 8.3 µM, 72 h, second-set screening, mean ± SD, n = 2) was 0 ± 1 % of Control and the “Cell Viability (% of Control) 25 µM” value (Fadu cells; Fadu, 25 µM, 72 h, second-set screening, mean ± SD, n = 2) was 0 ± 0 % of Control. For the same compound, the “Selectivity Index (SI) Fibroblast/Fadu” value (Fadu cells; ratio of mean best-fit IC50 for primary fibroblasts and best-fit IC50 for Fadu) was 1.6, the IC50 (Fadu cells; read-out: Fadu IC50 values, individual replicates n1-n3, IC50 independently determined for each replicate measurement (Supplement S.6)) was 3.2 µM and 2.75 µM (2×) and the IC50 (Fadu cells; read-out: IC50 Value ± SEM Fadu, 72 h treatment, best-fit values, n = 3) was 2900 ± 60 nM. For the same compound, the “PANC-1 Cell viability (% of controll)” value (PANC-1 cells [2]; 0.7 μM, 72 h) was 112 % of controll and 107 % of controll and 109 % of controll, the “PANC-1 Cell viability (% of controll)” value (PANC-1 cells [2]; 1 μM, 72 h) was 107 % of controll and 114 % of controll and 110 % of controll and the “PANC-1 Cell viability (% of controll)” value (PANC-1 cells [2]; 1.5 μM, 72 h) was 116 % of controll and 119 % of controll and 108 % of controll. The “PANC-1 Cell viability (% of controll)” value (PANC-1 cells [2]; 2.3 μM, 72 h) was 97 % of controll and 105 % of controll and 115 % of controll, the “PANC-1 Cell viability (% of controll)” value (PANC-1 cells [2]; 3.4 μM, 72 h) was 2 % of controll (2×) and 4 % of controll and the “PANC-1 Cell viability (% of controll)” value (PANC-1 cells [2]; 5.1 μM, 72 h) was 0 % of controll. The “PANC-1 Cell viability (% of controll)” value (PANC-1 cells [2]; 7.7 μM, 72 h) was 0 % of controll, the “PANC-1 Cell viability (% of controll)” value (PANC-1 cells [2]; 17.3 μM, 72 h) was 0 % of controll and the “PANC-1 Cell viability (% of controll)” value (PANC-1 cells [2]; 26 μM, 72 h) was 0 % of controll. For the same compound, the “Cell Viability (% of Control) 2.8 µM” value (PANC-1 cells [2]; PANC-1, 2.8 µM, 72 h, second-set screening, mean ± SD, n = 2) was 44 ± 41 % of Control, the “Cell Viability (% of Control) 8.3 µM” value (PANC-1 cells [2]; PANC-1, 8.3 µM, 72 h, second-set screening, mean ± SD, n = 2) was 0 ± 0 % of Control and the “Cell Viability (% of Control) 25 µM” value (PANC-1 cells [2]; PANC-1, 25 µM, 72 h, second-set screening, mean ± SD, n = 2) was 0 ± 0 % of Control. For the same compound, the “Selectivity Index (SI) Fibroblast/PANC-1” value (PANC-1 cells [2]; ratio of mean best-fit IC50 for primary fibroblasts and best-fit IC50 for PANC-1) was 1.7, the IC50 (PANC-1 cells [2]; read-out: IC50 Value ± SEM PANC-1, 72 h treatment, best-fit values, n = 3) was 2700 ± 70 nM and the IC50 (PANC-1 cells [2]; read-out: PANC-1 IC50 values, Mean, mean of independently fitted replicate IC50 values (Supplement S.6)) was 2710 nM. The IC50 (PANC-1 cells [2]; read-out: PANC-1 IC50 values, individual replicates n1-n3, IC50 independently determined for each replicate measurement (Supplement S.6)) was 2790 nM and 2620 nM and 2720 nM, the “concentration range of almost complete eradication of PANC-1 and Fadu cells with little to no cytotoxic effect toward fibroblasts” value (PANC-1 and Fadu cells) was 3000 to 4000 nM and the “Primer fibroblast Cell viability (% of controll)” value ([3]; 0.7 μM) was 97 % of controll and 105 % of controll and 109 % of controll. The “Primer fibroblast Cell viability (% of controll)” value ([3]; 1 μM) was 111 % of controll and 113 % of controll and 100 % of controll, the “Primer fibroblast Cell viability (% of controll)” value ([3]; 1.5 μM) was 105 % of controll and 113 % of controll and 100 % of controll and the “Primer fibroblast Cell viability (% of controll)” value ([3]; 2.3 μM) was 105 % of controll and 107 % of controll and 101 % of controll. The “Primer fibroblast Cell viability (% of controll)” value ([3]; 3.4 μM) was 108 % of controll (2×) and 100 % of controll, the “Primer fibroblast Cell viability (% of controll)” value ([3]; 5.1 μM) was 9 % of controll (2×) and 6 % of controll and the “Primer fibroblast Cell viability (% of controll)” value ([3]; 7.7 μM) was 0 % of controll. The “Primer fibroblast Cell viability (% of controll)” value ([3]; 17.3 μM) was 0 % of controll, the “Primer fibroblast Cell viability (% of controll)” value ([3]; 26 μM) was 0 % of controll and the IC50 ([3]; read-out: IC50 Value ± SEM Primary Fibroblast, 72 h treatment, best-fit values, n = 3) was 4600 ± 830 nM. The IC50 ([3]; read-out: Primary fibroblast IC50 values, Mean, mean of independently fitted replicate IC50 values (Supplement S.6), ONC201 value mathematically estimated from inflection point) was 4630 nM and the IC50 ([3]; read-out: Primary fibroblast IC50 values, individual replicates n1-n3, IC50 independently determined for each replicate (Supplement S.6), ONC201 value mathematically estimated from inflection point, viability stayed above 50%) was 4800 nM and 4280 nM.
